In paper PMC7217250, “Efficiency of vanillin in impeding metabolic adaptability and virulence of Candida albicans by inhibiting glyoxylate cycle, morphogenesis, and biofilm formation” (Current Medical Mycology, 2020):

Molecular target: T1, Mls1p (malate synthase, MLS) (Candida albicans, UniProt Q5APD2)
T1 construct: gene MLS1; native enzyme in crude extract of C. albicans cells; not purified
Experiment: spectrophotometric 5-thio-2-nitrobenzoic acid formation at […] nm, crude extract
Assay type: cell-based

T1 sequence (Q5APD2 entry or part of it): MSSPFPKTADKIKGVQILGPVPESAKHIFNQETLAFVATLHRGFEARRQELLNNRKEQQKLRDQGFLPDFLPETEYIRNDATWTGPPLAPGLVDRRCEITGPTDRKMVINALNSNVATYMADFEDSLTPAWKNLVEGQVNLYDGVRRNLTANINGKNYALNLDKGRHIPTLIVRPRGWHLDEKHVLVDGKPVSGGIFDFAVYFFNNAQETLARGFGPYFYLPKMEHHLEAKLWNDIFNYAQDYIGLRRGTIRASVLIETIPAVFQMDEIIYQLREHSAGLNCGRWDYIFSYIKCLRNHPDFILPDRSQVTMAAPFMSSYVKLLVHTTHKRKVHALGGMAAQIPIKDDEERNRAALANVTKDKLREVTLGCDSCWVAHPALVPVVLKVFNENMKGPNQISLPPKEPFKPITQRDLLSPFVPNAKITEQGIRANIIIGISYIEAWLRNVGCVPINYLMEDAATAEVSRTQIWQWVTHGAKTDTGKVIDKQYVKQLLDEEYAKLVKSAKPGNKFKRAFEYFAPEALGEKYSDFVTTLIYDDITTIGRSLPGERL

In the case of `CC(=O)SCCNC(=O)CCNC(=O)[C@H](O)C(C)(C)COP(=O)(O)OP(=O)(O)OC[C@H]1O[C@@H](n2cnc3c(N)ncnc32)[C@H](O)[C@@H]1OP(=O)(O)O` [acetyl CoA], the “spectrophotometric 5-thio-2-nitrobenzoic acid formation at 412 nm, crude extract” value is reported as “acetyl CoA (Sigma Chemical Co., USA) were used as the substrates for the ICL and MLS”.
